In PubChem BioAssay (NCI):
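Growth conditions: 96-well plates. Treatment: test compound, 48 hours, 5 concentrations. Analysis: linear interpolation between bracketing concentrations; unreached endpoints set to highest concentration. TGI marks complete inhibition of growth.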

Tests used:
Assay in all cases: NCI anticancer screen, dose series, 48 h
OVCAR-8 ovarian = test system: OVCAR-8 ovarian
SF-295 CNS = test system: SF-295 CNS
K-562 leukemia = test system: K-562 leukemia
LOX IMVI melanoma = test system: LOX IMVI melanoma
NCI-H522 lung = test system: NCI-H522 lung
HL-60(TB) leukemia = test system: HL-60(TB) leukemia
ACHN renal = test system: ACHN renal
TK-10 renal = test system: TK-10 renal
T-47D breast = test system: T-47D breast
MDA-N = test system: MDA-N

In the case of CN(C)CCNC(=O)c1cccc2c1C(=O)c1ccccc1C2=O, the TGI (OVCAR-8 ovarian) is reported as 88.3 µM, the TGI (SF-295 CNS) is reported as over 100 µM and the TGI (K-562 leukemia) is reported as 54.5 µM. It also gave a TGI (LOX IMVI melanoma) of over 75.1 µM, a TGI (NCI-H522 lung) of 69.1 µM and a TGI (HL-60(TB) leukemia) of 57.8 µM.

Nc1nnc(N)n1N was tested, and the TGI (SF-295 CNS) was over 100 µM, the TGI (ACHN renal) was over 100 µM and the TGI (K-562 leukemia) was over 100 µM. For the same compound, the TGI (LOX IMVI melanoma) was over 100 µM, the TGI (NCI-H522 lung) was over 100 µM and the TGI (TK-10 renal) was over 100 µM. The TGI (HL-60(TB) leukemia) was over 100 µM.

Work on N=c1oc2cc(O)ccc2cc1C(=O)Nc1ccccn1 yielded a TGI (OVCAR-8 ovarian) of over 100 µM, a TGI (SF-295 CNS) of over 100 µM and a TGI (ACHN renal) of over 100 µM. For the same compound, the TGI (K-562 leukemia) was over 100 µM, the TGI (LOX IMVI melanoma) was over 100 µM and the TGI (NCI-H522 lung) was 13 µM. For the same compound, the TGI (T-47D breast) was over 100 µM, the TGI (TK-10 renal) was over 100 µM and the TGI (HL-60(TB) leukemia) was over 100 µM.

For Nc1cc(C2CCCc3c2[nH]c2ccccc32)ccc1O (stereo not drawn), the TGI (OVCAR-8 ovarian) was over 100 µM, the TGI (SF-295 CNS) was over 100 µM and the TGI (ACHN renal) was over 100 µM. It also gave a TGI (K-562 leukemia) of over 100 µM, a TGI (LOX IMVI melanoma) of 71.2 µM and a TGI (NCI-H522 lung) of over 100 µM. The TGI (T-47D breast) was over 100 µM, the TGI (TK-10 renal) was over 100 µM and the TGI (HL-60(TB) leukemia) was 50.3 µM.

Compound Cc1cc2ncn(CC(=O)O)c2cc1C has a TGI (OVCAR-8 ovarian) of over 100 µM, a TGI (SF-295 CNS) of over 100 µM and a TGI (ACHN renal) of over 100 µM. The TGI (K-562 leukemia) was over 100 µM, the TGI (LOX IMVI melanoma) was over 100 µM and the TGI (NCI-H522 lung) was over 100 µM. It also gave a TGI (T-47D breast) of over 100 µM, a TGI (TK-10 renal) of over 100 µM and a TGI (HL-60(TB) leukemia) of over 100 µM.

In the case of COC(=O)c1ccc(OCCn2nnc(C(=O)NN)c2C(=O)NN)cc1, the TGI (OVCAR-8 ovarian) is reported as over 100 µM, the TGI (SF-295 CNS) is reported as over 100 µM and the TGI (ACHN renal) is reported as over 100 µM. The TGI (K-562 leukemia) was over 100 µM, the TGI (LOX IMVI melanoma) was over 100 µM and the TGI (MDA-N) was over 100 µM. The TGI (TK-10 renal) was over 100 µM and the TGI (HL-60(TB) leukemia) was over 100 µM.

In the case of C(=N\NC1=NCCCCN1)/c1ccc2ccccc2c1, the TGI (OVCAR-8 ovarian) is reported as over 100 µM, the TGI (SF-295 CNS) is reported as 46.3 µM and the TGI (ACHN renal) is reported as over 100 µM. The TGI (K-562 leukemia) was 40.2 µM, the TGI (LOX IMVI melanoma) was 29.8 µM and the TGI (NCI-H522 lung) was 87.1 µM. It also gave a TGI (T-47D breast) of 62 µM, a TGI (TK-10 renal) of over 100 µM and a TGI (HL-60(TB) leukemia) of 62.8 µM.

In the case of Nc1cc(OCC2CCCCC2)nc(N)n1, the TGI (OVCAR-8 ovarian) is reported as over 100 µM, the TGI (SF-295 CNS) is reported as over 100 µM and the TGI (ACHN renal) is reported as over 100 µM. The TGI (K-562 leukemia) was over 100 µM, the TGI (LOX IMVI melanoma) was over 100 µM and the TGI (NCI-H522 lung) was over 100 µM. For the same compound, the TGI (MDA-N) was over 100 µM, the TGI (TK-10 renal) was over 100 µM and the TGI (HL-60(TB) leukemia) was over 100 µM.

Work on O=C1CCCC2=C1CC1=C(CCCC1=O)N2c1ccc(Cl)cc1 yielded a TGI (OVCAR-8 ovarian) of over 100 µM, a TGI (SF-295 CNS) of over 100 µM and a TGI (ACHN renal) of over 100 µM. The TGI (K-562 leukemia) was over 100 µM, the TGI (LOX IMVI melanoma) was over 100 µM and the TGI (MDA-N) was over 100 µM. The TGI (TK-10 renal) was over 100 µM and the TGI (HL-60(TB) leukemia) was over 100 µM.

In the case of CC1=C[P+](c2ccccc2)(c2ccccc2)c2ccccc2O1, the TGI (OVCAR-8 ovarian) is reported as over 100 µM, the TGI (SF-295 CNS) is reported as 38.9 µM and the TGI (ACHN renal) is reported as over 100 µM. For the same compound, the TGI (K-562 leukemia) was over 100 µM, the TGI (LOX IMVI melanoma) was 17.2 µM and the TGI (NCI-H522 lung) was 17.3 µM. For the same compound, the TGI (T-47D breast) was 7.79 µM, the TGI (TK-10 renal) was 94.4 µM and the TGI (HL-60(TB) leukemia) was 8.76 µM.
